Laboratory results published in patent US9409905B2, “Antibacterial compounds and methods for use” (PTC THERAPEUTICS, INC., priority 2011, dated 2016).
In brackets after ≈: the same amount, converted by molar mass.

Assays:
[1] = tested on: Escherichia coli (E. coli) BAS849; assay: Antibacterial activity, microbroth dilution MIC (Table 1); format: cell-based; conditions: microbroth dilution, super sensitive Gram-negative E. coli BAS849, read-out: MIC, BAS849
In short: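 Microbroth dilution was used. MIC, in μg/mL, is the lowest drug concentration preventing macroscopically visible growth under the test conditions.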

[2] = tested on: Staphylococcus aureus (S. aureus) 29213; assay: as above; format: cell-based; conditions: microbroth dilution, Gram-positive S. aureus 29213, read-out: MIC, 29213
In short: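 Broth microdilution against S. aureus 29213, E. coli 25922 and hypersensitive E. coli BAS849. MIC in μg/mL is the lowest drug concentration preventing macroscopically visible growth under test conditions.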

E. coli 25922 = assay: as above; format: cell-based, Escherichia coli; conditions: Escherichia coli; microbroth dilution; control Gram-negative E. coli 25922 strain; read-out: MIC, 25922
In short: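 Each strain is exposed to test compound in a microbroth dilution series; visible growth is scored macroscopically, and the lowest growth-free concentration is recorded as MIC in μg/mL.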

E. coli LZ3111 = assay: Antibacterial activity, MIC, quinolone resistant strain (Table 2); format: cell-based; conditions: Escherichia coli, LZ3111, read-out: MIC LZ3111
In short: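 MIC values (μg/mL) came from a microbroth dilution assay, scored as the lowest drug concentration at which no growth was visible by eye.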

E. coli ELZ4000 = assay: Antibacterial activity, MIC, multi-drug resistant clinical isolate (Table 3); format: cell-based; conditions: Escherichia coli, ELZ4000, read-out: MIC ELZ4000
In short: (§1)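 Compounds were serially diluted in broth microdilution format and growth was scored visually; the MIC is the lowest concentration at which no macroscopically visible growth occurred, expressed in μg/mL.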

E. coli ELZ4251 = assay: as above; format: cell-based; conditions: Escherichia coli
In short: as §1

[3] = tested on: Haemophilus influenzae (H. influenzae) 49247; assay: Antibacterial activity, MIC (Table 6); format: cell-based
Text: (§2) The antibacterial activity from a microbroth dilution method may be presented as the minimum inhibitory concentration (MIC in μg/mL). The MIC value is the lowest concentration of drug which prevents macroscopically visible growth under test conditions.
(§3) Antibacterial activity of test compounds against the Gram-negative bacteria Haemophilus influenzae (H. influenzae) 49247 is shown in Table 6, Moraxella catarrhalis (M. catarrhalis) 25238 is shown in Table 7 and Neisseria meningitidis (N. meningitidis) 13090 is shown in Table 8.

[4] = tested on: Neisseria meningitidis (N. meningitidis) 13090; assay: Antibacterial activity, MIC (Table 8); format: cell-based
Text: as §2, §3

[5] = tested on: Acinetobacter baumannii (A. baumannii) BAA747; assay: Antibacterial activity, MIC (Table 4); format: cell-based; conditions: A. baumannii BAA747, read-out: MIC, BAA747
In short: (§4)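 Activity was measured by microbroth dilution. The MIC, in μg/mL, is the lowest drug concentration that prevents macroscopically visible growth under the test conditions. The resistant strains are multi-drug resistant clinical isolates.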

A. baumannii MXX2240 = assay: Antibacterial activity, MIC, resistant strain (Table 4); format: cell-based; conditions: Acinetobacter baumannii, MXX2240; resistant A. baumannii MMX2240, multi-drug resistant clinical isolate; read-out: MIC, MMX2240
In short: as §4

K. pneumoniae MXX1232 = assay: as above; format: cell-based; conditions: Klebsiella pneumoniae, MXX1232; resistant K. pneumoniae MMX1232, multi-drug resistant clinical isolate; read-out: MIC, MMX1232
In short: as §4

[6] = tested on: Pseudomonas aeruginosa (P. aeruginosa) 27853; assay: Antibacterial activity, MIC (Table 5); format: cell-based; conditions: P. aeruginosa 27853, read-out: MIC, 27853
In short: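 Values are MICs in μg/mL, read as the lowest concentration at which no growth is visible by eye. They were determined by a microbroth dilution method.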

[7] = tested on: Klebsiella pneumoniae (K. pneumoniae) 35657; assay: Antibacterial activity, MIC (Table 4); format: cell-based; conditions: K. pneumoniae 35657, read-out: MIC, 35657
In short: as §4

SMILES | MIC [1] [µg/mL] | MIC [2] [µg/mL] | MIC (E. coli 25922) [µg/mL] | MIC (E. coli LZ3111) [µg/mL] | MIC (E. coli ELZ4000) [µg/mL] | MIC (E. coli ELZ4251) [µg/mL] | MIC [3] [µg/mL] | MIC [4] [µg/mL] | MIC [5] [µg/mL] | MIC (A. baumannii MXX2240) [µg/mL] | MIC (K. pneumoniae MXX1232) [µg/mL] | MIC [6] [µg/mL] | MIC [7] [µg/mL]
CCc1c(-c2ccc3c(c2)oc(=O)n3C)[nH]c(=O)c(C(=O)O)c1O [Cpd 11, 5-ethyl-4-hydroxy-6-(3-methyl-2-oxo-2,3-dihydrobenzo[d]oxazol-6-yl)-2-oxo-1,2-dihydropyridine-3-carboxylic acid] | < 1 | 12.5 to 150 (≈ 37.8 to 454 µM) | 1 to 3.5 (≈ 3.03 to 10.6 µM) | 12.5 to 150 (≈ 37.8 to 454 µM) | 12.5 to 150 (≈ 37.8 to 454 µM) | 12.5 to 150 (≈ 37.8 to 454 µM) | < 1 |  |  |  |  |  | 
CC(C)c1cc(C(=O)O)c(=O)[nH]c1-c1ccc2c(ccn2C)c1 [Cpd 33, 5-isopropyl-6-(1-methyl-1H-indol-5-yl)-2-oxo-1,2-dihydropyridine-3-carboxylic acid] | < 1 | 12.5 to 150 (≈ 40.3 to 483 µM) | 3.5 to 12.5 (≈ 11.3 to 40.3 µM) | 12.5 to 150 (≈ 40.3 to 483 µM) | 12.5 to 150 (≈ 40.3 to 483 µM) | 12.5 to 150 (≈ 40.3 to 483 µM) | < 1 | < 1 |  |  |  |  | 
Cn1ccc2cc(-c3[nH]c(=O)c(C(=O)O)cc3C3CC3)ccc21 [Cpd 35, 5-cyclopropyl-6-(1-methyl-1H-indol-5-yl)-2-oxo-1,2-dihydropyridine-3-carboxylic acid] | < 1 | 12.5 to 150 (≈ 40.5 to 486 µM) | 1 to 3.5 (≈ 3.24 to 11.4 µM) | 12.5 to 150 (≈ 40.5 to 486 µM) | 12.5 to 150 (≈ 40.5 to 486 µM) | 12.5 to 150 (≈ 40.5 to 486 µM) | < 1 | < 1 |  |  |  |  | 
CCc1cc(C(=O)O)c(=O)[nH]c1-c1ccc2c(c1)cc(C)n2C [Cpd 37, 6-(1,2-dimethyl-1H-indol-5-yl)-5-ethyl-2-oxo-1,2-dihydropyridine-3-carboxylic acid] | < 1 | 1 to 3.5 (≈ 3.22 to 11.3 µM) | < 1 | 12.5 to 150 (≈ 40.3 to 483 µM) | 12.5 to 150 (≈ 40.3 to 483 µM) | 12.5 to 150 (≈ 40.3 to 483 µM) | < 1 | < 1 |  |  |  |  | 
CCc1c(-c2ccc3c(c2)cc(C)n3C)[nH]c(=O)c(C(=O)O)c1O [Cpd 38, 6-(1,2-dimethyl-1H-indol-5-yl)-5-ethyl-4-hydroxy-2-oxo-1,2-dihydropyridine-3-carboxylic acid] | < 1 | 1 to 3.5 (≈ 3.06 to 10.7 µM) | 1 to 3.5 (≈ 3.06 to 10.7 µM) | 12.5 to 150 (≈ 38.3 to 460 µM) | 12.5 to 150 (≈ 38.3 to 460 µM) | 12.5 to 150 (≈ 38.3 to 460 µM) | < 1 | < 1 |  |  |  |  | 
CCc1cc(C(=O)O)c(=O)[nH]c1-c1ccc2c(c1)cc(CO)n2C [Cpd 39, 5-ethyl-6-(2-(hydroxymethyl)-1-methyl-1H-indol-5-yl)-2-oxo-1,2-dihydropyridine-3-carboxylic acid] | < 1 | 3.5 to 12.5 (≈ 10.7 to 38.3 µM) | 1 to 3.5 (≈ 3.06 to 10.7 µM) | 12.5 to 150 (≈ 38.3 to 460 µM) | 12.5 to 150 (≈ 38.3 to 460 µM) | 12.5 to 150 (≈ 38.3 to 460 µM) | < 1 | < 1 |  |  |  |  | 
CCc1c(-c2ccc3c(c2)cc(CO)n3C)[nH]c(=O)c(C(=O)O)c1O [Cpd 40, 5-ethyl-4-hydroxy-6-(2-(hydroxymethyl)-1-methyl-1H-indol-5-yl)-2-oxo-1,2-dihydropyridine-3-carboxylic acid] | < 1 | 1 to 3.5 (≈ 2.92 to 10.2 µM) | 1 to 3.5 (≈ 2.92 to 10.2 µM) | 3.5 to 12.5 (≈ 10.2 to 36.5 µM) | 12.5 to 150 (≈ 36.5 to 438 µM) | 3.5 to 12.5 (≈ 10.2 to 36.5 µM) | < 1 | < 1 | 1 to 3.5 (≈ 2.92 to 10.2 µM) | 3.5 to 12.5 (≈ 10.2 to 36.5 µM) | 12.5 to 150 (≈ 36.5 to 438 µM) | 3.5 to 12.5 (≈ 10.2 to 36.5 µM) | 
CNC1Cc2cc3cc(-c4[nH]c(=O)c(C(=O)O)c(O)c4C)ccc3n2C1.Cl (centres unmarked) [Cpd 415, 4-hydroxy-5-methyl-6-(2-(methylamino)-2,3-dihydro-1H-pyrrolo[1,2-a]indol-7-yl)-2-oxo-1,2-dihydropyridine-3-carboxylic acid hydrochloride] | 1 to 3.5 | 12.5 to 150 | 3.5 to 12.5 | < 1 | 3.5 to 12.5 | 1 to 3.5 |  | 1 to 3.5 | 12.5 to 150 | 3.5 to 12.5 | 12.5 to 150 | 12.5 to 150 | 3.5 to 12.5
CCc1c(-c2ccc3cc[nH]c3c2)[nH]c(=O)c(C(=O)O)c1O [Cpd 423, 5-ethyl-4-hydroxy-6-(1H-indol-6-yl)-2-oxo-1,2-dihydropyridine-3-carboxylic acid] | < 1 | 1 to 3.5 (≈ 3.35 to 11.7 µM) | < 1 | 1 to 3.5 (≈ 3.35 to 11.7 µM) | 3.5 to 12.5 (≈ 11.7 to 41.9 µM) | 1 to 3.5 (≈ 3.35 to 11.7 µM) |  | < 1 | < 1 | 1 to 3.5 (≈ 3.35 to 11.7 µM) | 12.5 to 150 (≈ 41.9 to 503 µM) | 3.5 to 12.5 (≈ 11.7 to 41.9 µM) | < 1
